The test system of test [1] is rat perifused pancreatic islets. Description: KATP opening effects through insulin secretion in rat perifused pancreatic islets. The test is classed as cell-based. As to conditions: insulin secretion at 11 mM glucose; for % Inhibition 0-30: 0-30 minutes; for % Inhibition 30-60: 30-60 minutes. The procedure: The animals were maintained on a 12 h light-dark cycle (lights on 06.00-18.00 h) with free access to standard rodent diet (B&K Universal Ltd standard rat and mouse diet (BK 001P), Beekay Feeds, B&K Universal Ltd, Hull, East Riding of Yorkshire) and tap water. The rats were conditioned to this environment for at least one week before experimentation.
Experimental procedures: After the rats were sacrificed, the branch of the bile duct leading to the liver and the duodenal end of the duct in the pancreas were clamped and the pancreas distended by injection of ice-cold 0.9 mg/ml collagenase solution into the bile duct. […] Following incubation, 10 ml of cold buffer was added and the suspension shaken vigorously by hand for 1 min. The islets were allowed to settle for 5 min on ice and washed three times using ice-cold buffer. Well formed and good sized islets from 3 rats were hand-picked (under a low power microscope) and pooled and a final selection of islet transferred to the perifusion apparatus.
Two experiments were performed in parallel in two identical, independent sets of perifusion apparatus each consisting of sufficient number of chambers. Each chamber was loaded with 20 hand-picked islets. Islets were perifused for an initial 30 min period in media containing 4 mM glucose. Perifusate was then collected at 2 min intervals for the remainder of the experiment. […] Perifusate fractions were stored at −75° C. until required for insulin assay. Insulin content of fractions were assayed using a 96-well ELISA assay (Mercodia). Initial insulin assays were performed in triplicate on three pooled fractions from each chamber.
Data were initially expressed as a simple mean of the three experiments for insulin secretion (pg/islet/min) and multiple t-tests (against the corresponding vehicle time period) used to determine potential significant effects of treatments. Alternatively, data were also calculated as a % vehicle effect for each experimental day.

For the next test, the target named is rat SUR2 (Rattus norvegicus, UniProt Q63563). The test is described as follows: In vitro binding affinity to rodent KATP channels: SUR2 (COS cell membranes). The note with it: rat SUR2 transiently expressed in COS cells; isoform (2A/2B) not given. The procedure: Similar to SUR1 (see above) competitive binding experiments were performed to characterize the affinity of the test compounds for the binding sites for sulfonylureas and KCOs on rat SUR2A. The affinity for the KCO site on SUR2A was assessed by displacement of [^3H]P1075 (see Schwanstecher et al., 1998; Dörschner H. et al. Mol. Pharmacol. 55 (1999) 1060-1066 (Dörschner et al., 1999)). The affinity of [^3H]glibenclamide for the […] SUR2 isoforms, however, is too weak to allow direct detection of binding using filtration assays. Therefore, two strategies can be used to detect binding to the sulfonylurea site on SUR2A. First, binding can be detected indirectly through allosteric displacement of [^3H]P1075 (Dörschner et al., 1999). Second, a mutated SUR2A (SUR2AY1205S, see above) with increased affinity for [^3H]glibenclamide allowing direct displacement of this tracer can be used.
Membranes from COS-cells transiently expressing rat SUR2A were incubated in the presence of the radioligands with increasing concentrations of test compounds as described above. […] For each test compound […] displacement curves were measured (displacement of [^3H]P1075 from the rat isoform of the wild type receptor and displacement of [^3H]glibenclamide from the rat isoform of SUR2AY1205S). Per curve 9-15 distinct concentrations were tested covering the relevant range. […]

For another test, the target named is T1, hamster SUR1 (Cricetus cricetus, UniProt Q09427).
T1 construct: expressed in transfected cells; host or cells: COS-1 cells (transient, pcDNA vector), membranes
Description: biochemical. Type of test: binding. The procedure: Competitive binding experiments were performed to characterize the affinity of the test compounds for the binding sites for sulfonylureas and KATP channel openers (KCOs) on hamster SUR1. To assess the affinity for the sulfonylurea site membranes from COS-cells transiently expressing hamster SUR1 were incubated in the presence of [^3H]glibenclamide with increasing concentrations of test compounds. […] Per curve 9-15 distinct concentrations were tested covering the relevant range. All measurements were repeated at least 5 times in independent experiments.
[^3H]glibenclamide (specific activity 51 Ci mmol^−1 was obtained from NEN (Dreieich, Germany). If suitable, stock solutions were prepared in dimethylsulfoxide with a final solvent concentration in the media below 1%.
SUR- or Kir6.x isoforms were used either subcloned in the pcDNA (hamster SUR1, mouse Kir6.2) or pCMV vector (rat SUR2A, SUR2B).
Rodent SUR-isoforms and KATP channels were transiently expressed in COS-1 cells as described in the literature. […]
The inhibition constant (Ki value) of the test substances was calculated from the respective IC50 value and was stated as the negative logarithmic value thereof (pKi).

Test [2] has as its system glucose-stimulated insulin release. Description: Inhibition of glucose-stimulated insulin release (potency comparison in text). The note with it: relative to diazoxide.

Read-outs that look alike come from different tables or passages of the source.

T1 sequence (Q09427 whole entry): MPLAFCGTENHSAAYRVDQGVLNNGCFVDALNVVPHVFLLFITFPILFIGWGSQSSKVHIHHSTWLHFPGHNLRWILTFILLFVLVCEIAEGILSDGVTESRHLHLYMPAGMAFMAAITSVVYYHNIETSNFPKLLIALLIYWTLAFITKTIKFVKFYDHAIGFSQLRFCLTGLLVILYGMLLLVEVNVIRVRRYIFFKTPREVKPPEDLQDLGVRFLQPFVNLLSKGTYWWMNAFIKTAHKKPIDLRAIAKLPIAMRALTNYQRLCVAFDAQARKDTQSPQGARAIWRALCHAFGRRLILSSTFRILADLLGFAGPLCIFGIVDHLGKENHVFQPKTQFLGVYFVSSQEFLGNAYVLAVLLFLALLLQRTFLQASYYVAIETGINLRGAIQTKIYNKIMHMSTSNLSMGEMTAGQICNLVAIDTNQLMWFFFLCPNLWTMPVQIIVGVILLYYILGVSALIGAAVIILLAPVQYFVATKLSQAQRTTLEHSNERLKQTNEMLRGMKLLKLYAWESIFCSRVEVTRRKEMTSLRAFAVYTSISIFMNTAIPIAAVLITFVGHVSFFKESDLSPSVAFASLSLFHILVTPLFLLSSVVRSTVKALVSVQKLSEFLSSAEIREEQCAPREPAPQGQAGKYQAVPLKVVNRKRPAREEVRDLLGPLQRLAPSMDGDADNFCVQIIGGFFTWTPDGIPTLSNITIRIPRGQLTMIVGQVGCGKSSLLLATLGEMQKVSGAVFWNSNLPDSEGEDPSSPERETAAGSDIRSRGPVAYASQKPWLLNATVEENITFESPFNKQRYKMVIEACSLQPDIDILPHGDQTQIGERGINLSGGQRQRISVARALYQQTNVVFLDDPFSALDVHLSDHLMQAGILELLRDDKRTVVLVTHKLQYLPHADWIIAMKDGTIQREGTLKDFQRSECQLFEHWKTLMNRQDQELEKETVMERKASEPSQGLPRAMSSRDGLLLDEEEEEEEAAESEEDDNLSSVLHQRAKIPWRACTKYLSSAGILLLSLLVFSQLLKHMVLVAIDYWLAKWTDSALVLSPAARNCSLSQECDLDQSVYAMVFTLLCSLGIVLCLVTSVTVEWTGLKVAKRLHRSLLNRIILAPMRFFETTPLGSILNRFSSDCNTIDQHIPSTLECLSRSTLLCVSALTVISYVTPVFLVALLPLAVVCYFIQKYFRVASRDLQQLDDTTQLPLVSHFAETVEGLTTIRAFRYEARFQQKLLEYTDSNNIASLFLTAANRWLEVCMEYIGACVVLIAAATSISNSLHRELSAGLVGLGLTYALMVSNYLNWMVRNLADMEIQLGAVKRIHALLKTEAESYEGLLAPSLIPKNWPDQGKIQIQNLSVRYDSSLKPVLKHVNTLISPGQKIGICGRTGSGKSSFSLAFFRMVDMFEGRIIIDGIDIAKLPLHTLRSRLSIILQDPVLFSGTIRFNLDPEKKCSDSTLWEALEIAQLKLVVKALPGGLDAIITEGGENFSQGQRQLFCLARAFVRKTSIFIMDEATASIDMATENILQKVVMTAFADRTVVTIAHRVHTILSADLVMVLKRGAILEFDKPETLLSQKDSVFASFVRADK
Chain of rat SUR2 (Q63563 1-1503 Y1205S limits assumed, form open): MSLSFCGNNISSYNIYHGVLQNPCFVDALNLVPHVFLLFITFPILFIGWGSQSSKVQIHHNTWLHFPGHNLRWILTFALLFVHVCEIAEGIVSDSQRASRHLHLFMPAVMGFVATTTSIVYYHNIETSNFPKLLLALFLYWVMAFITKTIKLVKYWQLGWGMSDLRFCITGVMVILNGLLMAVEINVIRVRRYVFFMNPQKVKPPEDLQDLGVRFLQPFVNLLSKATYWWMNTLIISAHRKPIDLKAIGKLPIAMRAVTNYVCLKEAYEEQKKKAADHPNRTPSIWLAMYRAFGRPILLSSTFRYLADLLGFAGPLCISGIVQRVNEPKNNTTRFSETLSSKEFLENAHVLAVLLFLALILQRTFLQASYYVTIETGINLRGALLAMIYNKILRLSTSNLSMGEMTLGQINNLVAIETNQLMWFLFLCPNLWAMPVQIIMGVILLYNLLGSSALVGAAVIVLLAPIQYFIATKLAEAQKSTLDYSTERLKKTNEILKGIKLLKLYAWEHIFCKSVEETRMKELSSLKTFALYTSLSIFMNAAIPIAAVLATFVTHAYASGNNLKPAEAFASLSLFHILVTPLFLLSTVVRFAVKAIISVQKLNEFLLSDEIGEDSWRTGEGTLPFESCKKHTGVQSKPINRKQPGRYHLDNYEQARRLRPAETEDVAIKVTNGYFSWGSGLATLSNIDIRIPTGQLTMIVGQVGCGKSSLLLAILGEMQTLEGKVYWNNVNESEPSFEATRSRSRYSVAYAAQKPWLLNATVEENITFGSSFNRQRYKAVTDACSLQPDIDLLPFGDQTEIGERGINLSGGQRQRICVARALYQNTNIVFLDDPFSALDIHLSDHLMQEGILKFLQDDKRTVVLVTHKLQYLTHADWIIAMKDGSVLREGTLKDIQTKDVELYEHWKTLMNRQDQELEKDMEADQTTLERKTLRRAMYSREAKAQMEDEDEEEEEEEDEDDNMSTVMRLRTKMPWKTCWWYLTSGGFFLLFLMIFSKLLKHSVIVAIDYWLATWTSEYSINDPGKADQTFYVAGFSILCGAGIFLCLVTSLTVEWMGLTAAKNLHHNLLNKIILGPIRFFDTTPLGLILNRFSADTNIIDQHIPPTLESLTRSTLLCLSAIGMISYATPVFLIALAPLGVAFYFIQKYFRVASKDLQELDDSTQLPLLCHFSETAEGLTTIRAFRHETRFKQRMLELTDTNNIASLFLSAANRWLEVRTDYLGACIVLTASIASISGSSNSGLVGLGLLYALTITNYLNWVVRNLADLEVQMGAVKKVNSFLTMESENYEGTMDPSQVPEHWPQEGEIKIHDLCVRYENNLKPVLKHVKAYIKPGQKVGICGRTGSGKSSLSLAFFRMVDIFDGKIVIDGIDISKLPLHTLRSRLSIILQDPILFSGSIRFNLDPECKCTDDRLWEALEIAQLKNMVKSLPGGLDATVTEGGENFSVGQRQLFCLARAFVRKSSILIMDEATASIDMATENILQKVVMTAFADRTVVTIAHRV

As to `CON/C(=N\S(=O)(=O)c1ccc(Cl)cc1)N1C[C@H](c2cccc(F)c2)C(c2ccc(Cl)cc2)=N1` (stereo in doubt) [4-Chloro-N-{[3-(4-chloro-phenyl)-4-(3-fluoro-phenyl)-4,5-dihydro-pyrazol-1-yl]-methoxyamino-methylene}-benzenesulfonamide], in test [1], the “% Inhibition 0-30” value is recorded as 90% and the “% Inhibition 30-60” value amounted to 95%.
For the compound `CCc1c(C(=O)NN2CCCCC2)nc(-c2ccccc2Cl)n1-c1ccc(Cl)cc1` [1-(4-Chloro-phenyl)-2-(2-chloro-phenyl)-5-ethyl-1H-imidazole-4-carboxylic acid piperidin-1-ylamide, reference compound], in test [1], the “% Inhibition 0-30” value is on record as 59% and the “% Inhibition 30-60” value is 45%.
In the case of `CSc1c(C(=O)NN2CCCCC2)nc(-c2ccccc2Cl)n1-c1ccc(Cl)cc1` [1-(4-Chloro-phenyl)-2-(2-chloro-phenyl)-5-methylsulfanyl-1H-imidazole-4-carboxylic acid piperidin-1-ylamide], in test [1], the “% Inhibition 0-30” value is 56% and the “% Inhibition 30-60” value is 36%.
As to `CCCCC/C=C\C/C=C\C/C=C\C/C=C\CCCC(=O)OC(CO)CO` [2-AG, Icosa-5,8,11,14-tetraenoic acid 2-hydroxy-1-hydroxymethyl-ethyl ester], the “Affinity to SUR 2” value at rat SUR2 stood at 5.5.
On to `CC1=NS(=O)(=O)c2cc(Cl)ccc2N1` [Diazoxide, diazoxide], for which the Ki on hamster SUR1 (example in text on SUR binding, subunit not stated, read-out: pKi (converted)) is 158 µM.
With `CCCC(C)(C)c1ccc2c(c1)OC(C)(C)[C@@H]1CC=C(C)C[C@@H]21` [JW133, 3-(1,1-dimethyl-butyl)-6,6,9-trimethyl-6a,7,10,10a-tetrahydro-6H-benzo[c]chromene], the Ki at hamster SUR1 (hamster SUR1 transiently expressed in COS cells, read-out: Affinity to SUR 1 (converted)) was 1.26 µM. For the same compound, the “Affinity to SUR 2” value on rat SUR2 came to 3.6.
Consider `CN/C(=N\S(=O)(=O)N1CCOCC1)N1CC(c2ccccc2)C(c2ccc(Cl)cc2)=N1` (centres unmarked) [Mopholine-4-sulfonic acid [3-(4-chloro-phenyl)-4-phenyl-4,5-dihydro-pyrazol-1-yl]-methylamino-methyleneamide], for which, in test [1], the “% Inhibition 0-30” value was 83% and the “% Inhibition 30-60” value is 91%.
Turning to `CN/C(=N\S(=O)(=O)N(C)C)N1CC(c2cccc(F)c2)C(c2ccc(Cl)cc2)=N1` (centres unmarked) [N-{[3-(4-Chloro-phenyl)-4-(3-fluoro-phenyl)-4,5-dihydro-pyrazol-1-yl]-methylamino-methylene}-N,N-dimethyl-sulfonamide], in test [1], the “% Inhibition 0-30” value is 72% and the “% Inhibition 30-60” value came to 77%.
As for `CN/C(=N\S(=O)(=O)c1ccc(C(F)(F)F)cc1)N1CC(c2cccnc2)C(c2ccc(Cl)cc2)=N1` (centres unmarked) [N-{[3-(4-Chloro-phenyl)-4-pyridin-3-yl-4,5-dihydro-pyrazol-1-yl]-methylamino-methylene}-4-trifluoromethyl-benzenesulfonamide], in test [1], the “% Inhibition 0-30” value turned out to be 58% and the “% Inhibition 30-60” value came out at 31%.
`CC1(NC2=Nc3cc(Cl)sc3S(=O)(=O)N2)CC1` [NN-414]: in test [2], the “times more potent than diazoxide to inhibit glucose-stimulated insulin release” value was “more than 100 times”.
Turning to `CNC(=NS(=O)(=O)N1CCCCC1)C1=NN(c2ccc(Cl)cc2)C(c2ccccc2)C1` (centres unmarked) [Piperdine-1-sulfonic acid [1-(4-chloro-phenyl)-5-phenyl-4,5-dihydro-1H-pyrazol-3-yl]-methylamino-methyleneamide], in test [1], the “% Inhibition 0-30” value is recorded as 84% and the “% Inhibition 30-60” value was 47%.
Regarding `CN(C)CCNC(=NS(=O)(=O)N1CCCCC1)N1CC(c2ccccc2)C(c2ccc(Cl)cc2)=N1` (centres unmarked) [Piperidin-1-sulfonic acid [3-(4-chloro-phenyl)-4-phenyl-4,5-dihydro-pyrazol-1-yl]-(2-dimethylamino-ethyl-amino)-methyleneamide], in test [1], the “% Inhibition 0-30” value was determined as 71% and the “% Inhibition 30-60” value is 64%.
Regarding `Cc1c(C(=O)NN2CCCCC2)nn(-c2ccc(Cl)cc2Cl)c1-c1ccc(Cl)cc1` [Rimonabant, 5-(4-Chloro-phenyl)-1-(2,4-dichloro-phenyl)-4-methyl-1H-pyrazole-3-carboxylic acid piperidin-1-ylamide, reference compound], in test [1], the “% Inhibition 0-30” value came out at 22% and the “% Inhibition 30-60” value was 18%.

The record behind these values is patent US7763607B2, “Pharmaceutical compositions comprising CBx cannabinoid receptor modulators and potassium channel modulators” (Solvay Pharmaceuticals GmbH, priority 2006, dated 2010).
